Here are results for 15 compounds from patent US10000488B2, “Heterocyclic compound” (TAKEDA PHARMACEUTICAL COMPANY LIMITED, priority 2014, dated 2018).

The target in test [1] is T1, RORγt (Homo sapiens, UniProt P51449).
T1 sequence (P51449 1-497 isoform P51449-2): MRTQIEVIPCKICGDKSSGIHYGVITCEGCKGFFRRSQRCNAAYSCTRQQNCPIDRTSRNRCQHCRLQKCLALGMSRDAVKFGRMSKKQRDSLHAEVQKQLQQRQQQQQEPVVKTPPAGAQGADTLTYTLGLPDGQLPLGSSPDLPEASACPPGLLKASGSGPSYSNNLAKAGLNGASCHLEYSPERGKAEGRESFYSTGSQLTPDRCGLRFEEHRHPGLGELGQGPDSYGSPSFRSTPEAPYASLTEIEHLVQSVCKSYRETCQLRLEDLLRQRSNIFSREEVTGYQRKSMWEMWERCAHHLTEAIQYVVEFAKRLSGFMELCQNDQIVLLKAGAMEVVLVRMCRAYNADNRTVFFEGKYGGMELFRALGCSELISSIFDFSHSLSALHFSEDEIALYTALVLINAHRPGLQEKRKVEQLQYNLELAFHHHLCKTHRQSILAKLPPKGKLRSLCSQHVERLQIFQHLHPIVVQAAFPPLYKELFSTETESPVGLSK
As to the kind of experiment: RORγt binding test using fluorescent-labeled synthetic ligand (TR-FRET). To be noted: test compound 1 μM; read-out: binding inhibitory rate (%) of fluorescent-labeled synthetic ligand to RORγt at test compound 1 μM. As for the experimental part: RORγt Binding Test Using Fluorescent-Labeled Synthetic Ligand
The binding activity of the test compound to RORγt was measured by a time resolved fluorescence resonance energy transfer (TR-FRET) utilizing histidine-tagged RORγt, fluorescent-labeled synthetic ligand, and terbium-labeled anti-histidine tag antibody (Invitrogen). First, a test compound diluted with an assay buffer (20 mM Tris-HCl (pH 7.5), 100 mM NaCl, 1 mM DTT, 0.1% BSA) was added to a 384 well plate by 3 μL. Then, RORγt diluted with an assay buffer to 240 nM was added by 3 μL, after which fluorescent-labeled synthetic ligand diluted with the assay buffer to 12 μM was added by 3 μL, and the mixture was stood at room temperature for 20 min. Thereafter, a terbium-labeled anti-histidine tag antibody diluted with the assay buffer to 8 nM was added by 3 μL. The mixture was stood at room temperature for 20 min, and fluorescence intensity (excitation wavelength 320 nm, fluorescence wavelength 520 nm, delay time 100 microseconds) was measured by Envision (PerkinElmer).

For test [2], the target named is T1, RORγt. As to the kind of experiment: Cofactor recruitment test (Alpha Screen, biotinylated SRC-1 peptide). To be noted: read-out: signal value inhibitory rate (%) at test compound 1 μM. Type of test: biochemical. As for the experimental part: Cofactor Recruitment Test
Cofactor recruitment test was performed by Alpha Screen (Histidine Detection Kit, PerkinElmer) method. First, a test compound was diluted with an assay buffer (50 mM Tris-HCl (pH 7.5), 50 mM KCl, 1 mM DTT, 0.1% BSA) and added to a 384 well plate by 5 μL. […] The mixture was stood in a dark place for 1 hr, and the signal value was measured by Envision (PerkinElmer).

In test [3] the target is T1, RORγt. In words: Jurkat reporter test (human IL-17 ROR response element luciferase reporter, RORγt vector). Format: cell-based. The note with it: test compound 3 μM; Jurkat cells; read-out: luminescence level inhibitory rate (%) at test compound 3 μM. As for the experimental part:
The Jurkat cells used for the reporter test were cultured in a culture medium (RPMI (Invitrogen), 10% FCS (AusGeneX), 100 U/mL penicillin, 100 μg/mL streptomycin). On the day of the test, 4×10^7 cells were recovered by a centrifugal operation (1000 rpm, for 5 min) and suspended in PBS (phosphate buffered saline) (Invitrogen). Thereafter, the cells were recovered again by a centrifugal operation, and suspended in 2 mL of R buffer (NEON transfection kit, Invitrogen). […] Gene transfer was performed by Electroporation apparatus (NEON, Invitrogen) under the conditions of pulse voltage 1350 V, interval 10 milliseconds, number of times 3. The cells after gene transfer were suspended in 40 mL of a reaction medium (RPMI, 10% Lipid reduced FCS (HyClone), 10 mM HEPES (pH 7.5), 100 U/mL penicillin, 100 μg/mL streptomycin, 5 μM lovastatin), and plated in a 96 well plate by 90 μL. A test compound diluted with the reaction medium was added by 10 μL, and the cells were cultured overnight in an incubator. Bright-Glo (Promega) was added by 100 μL, and the mixture was stirred at room temperature for 10 min, and the luminescence level was measured by Envision (PerkinElmer).

Take `CC(C)n1c(=O)n(CC2CC2)c(=O)c2cc(NC(=O)N3CCCC(NC(=O)c4ccc(C#N)cc4)C3)ccc21` (stereo not drawn) [Example 180, 3-((4-cyanobenzoyl)amino)-N-(3-(cyclopropylmethyl)-1-isopropyl-2,4-dioxo-1,2,3,4-tetrahydroquinazolin-6-yl)piperidine-1-carboxamide]: the inhibition at 1 µM at RORγt [1] came out at 102%; on RORγt [2], 111%. On RORγt [3], the inhibition at 3 µM stood at 101%.
The matching figures for `CC(C)n1c(=O)n(CC2CC2)c(=O)c2cc(NC(=O)N3CCC[C@@H](NC(=O)c4ccc(C#N)cc4)C3)ccc21` [Example 218, (3R)-3-((4-cyanobenzoyl)amino)-N-(3-(cyclopropylmethyl)-1-isopropyl-2,4-dioxo-1,2,3,4-tetrahydroquinazolin-6-yl)piperidine-1-carboxamide]: 102%, 111% and 103%.
For `CC(C)n1c(=O)n(CC2CC2)c(=O)c2cc(NC(=O)N3CCC[C@@H](NC(=O)c4ccc(C#N)cc4F)C3)ccc21` [Example 219, (3R)-3-((4-cyano-2-fluorobenzoyl)amino)-N-(3-(cyclopropylmethyl)-1-isopropyl-2,4-dioxo-1,2,3,4-tetrahydroquinazolin-6-yl)piperidine-1-carboxamide] the same measures were 102%, 110% and 101%.
For `CC(C)n1c(=O)n(CC2CC2)c(=O)c2cc(NC(=O)N3CCC[C@@H](NC(=O)c4ccc(C#N)nc4)C3)ccc21` [Example 223, 6-cyano-N-((3R)-1-((3-(cyclopropylmethyl)-1-isopropyl-2,4-dioxo-1,2,3,4-tetrahydroquinazolin-6-yl)carbamoyl)piperidin-3-yl)nicotinamide] the same measures were 102%, 111% and 102%.
With `CC(C)n1c(=O)n(CC2CC2)c(=O)c2cc(NC(=O)N3CCO[C@@H](C(=O)Nc4ccc(C#N)c(Cl)c4)C3)c(F)cc21` [Example 235, (2R)-N^2-(3-chloro-4-cyanophenyl)-N^4-(3-(cyclopropylmethyl)-7-fluoro-1-isopropyl-2,4-dioxo-1,2,3,4-tetrahydroquinazolin-6-yl)morpholine-2,4-dicarboxamide], the inhibition at 1 µM turned out to be 102% on RORγt [1] and 109% on RORγt [2]. The inhibition at 3 µM at RORγt [3] is 103%.
The matching figures for `Cc1ccc(C(=O)N[C@@H]2CCCN(C(=O)Nc3ccc4c(c3)c(=O)n(CC3CC3)c(=O)n4C(C)C)C2)s1` [Example 242, (3R)-N-(3-(cyclopropylmethyl)-1-isopropyl-2,4-dioxo-1,2,3,4-tetrahydroquinazolin-6-yl)-3-(((5-methyl-2-thienyl)carbonyl)amino)piperidine-1-carboxamide]: 102%, 105% and 103%.
For `COc1ccc(C(=O)N[C@@H]2CCCN(C(=O)Nc3ccc4c(c3)c(=O)n(CC3CC3)c(=O)n4C(C)C)C2)cc1` [Example 244, (3R)-N-(3-(cyclopropylmethyl)-1-isopropyl-2,4-dioxo-1,2,3,4-tetrahydroquinazolin-6-yl)-3-((4-methoxybenzoyl)amino)piperidine-1-carboxamide] the same measures were 102%, 105% and 104%.
For `CC(C)n1c(=O)n(CC2CC2)c(=O)c2cc(NC(=O)N3CCC[C@@H](NC(=O)c4ccc(Cl)cc4)C3)ccc21` [Example 247, (3R)-3-((4-chlorobenzoyl)amino)-N-(3-(cyclopropylmethyl)-1-isopropyl-2,4-dioxo-1,2,3,4-tetrahydroquinazolin-6-yl)piperidine-1-carboxamide] the same measures were 102%, 107% and 103%.
As to `CC(C)n1c(=O)n(CC2CC2)c(=O)c2cc(NC(=O)N3CCC[C@@H](NC(=O)c4cccc(Cl)c4)C3)ccc21` [Example 248, (3R)-3-((3-chlorobenzoyl)amino)-N-(3-(cyclopropylmethyl)-1-isopropyl-2,4-dioxo-1,2,3,4-tetrahydroquinazolin-6-yl)piperidine-1-carboxamide], the inhibition at 1 µM on RORγt [1] came out at 102%; on RORγt [2] it was 104%. The inhibition at 3 µM at RORγt [3] is 104%.
In the case of `Cc1cc(C(=O)N[C@@H]2CCCN(C(=O)Nc3ccc4c(c3)c(=O)n(CC3CC3)c(=O)n4C(C)C)C2)ccc1C#N` [Example 249, (3R)-3-((4-cyano-3-methylbenzoyl)amino)-N-(3-(cyclopropylmethyl)-1-isopropyl-2,4-dioxo-1,2,3,4-tetrahydroquinazolin-6-yl)piperidine-1-carboxamide], the inhibition at 1 µM is 102% at RORγt [1] and 110% at RORγt [2]. For the same compound, the inhibition at 3 µM at RORγt [3] was found to be 103%.
For `CC(C)n1c(=O)n(CC2CC2)c(=O)c2cc(NC(=O)N3CCC[C@@H](NC(=O)c4ccc5c(c4)CCO5)C3)ccc21` [Example 251, (3R)-N-(3-(cyclopropylmethyl)-1-isopropyl-2,4-dioxo-1,2,3,4-tetrahydroquinazolin-6-yl)-3-((2,3-dihydro-1-benzofuran-5-ylcarbonyl)amino)piperidine-1-carboxamide] the same measures were 102%, 105% and 102%.
As to `Cc1ccc(F)c(C(=O)N[C@@H]2CCCN(C(=O)Nc3ccc4c(c3)c(=O)n(CC3CC3)c(=O)n4C(C)C)C2)c1` [Example 259, (3R)-N-(3-(Cyclopropylmethyl)-1-isopropyl-2,4-dioxo-1,2,3,4-tetrahydroquinazolin-6-yl)-3-((2-fluoro-5-methylbenzoyl)amino)piperidine-1-carboxamide], the inhibition at 1 µM on RORγt [1] and at RORγt [2] was 102% in each case. Further, the inhibition at 3 µM at RORγt [3] was 102%.
For `CC(C)n1c(=O)n(CC2CC2)c(=O)c2cc(NC(=O)[C@@H]3CCC[C@@H]3NC(=O)c3ccc(C#N)cc3)ccc21` [Example 264, 4-cyano-N-((1S,2R)-2-((3-(cyclopropylmethyl)-1-isopropyl-2,4-dioxo-1,2,3,4-tetrahydroquinazolin-6-yl)carbamoyl)cyclopentyl)benzamide], the inhibition at 1 µM came to 102% at RORγt [1] and 110% on RORγt [2]. The inhibition at 3 µM on RORγt [3] is 102%.
Take `CC(C)n1c(=O)n(CC2CC2)c(=O)c2cc(NC(=O)N3CCO[C@@H](C(=O)Nc4cnc(C#N)c(Cl)c4)C3)c(F)cc21` [Example 266, (2R)-N^2-(5-chloro-6-cyanopyridin-3-yl)-N^4-(3-(cyclopropylmethyl)-7-fluoro-1-isopropyl-2,4-dioxo-1,2,3,4-tetrahydroquinazolin-6-yl)morpholine-2,4-dicarboxamide]: the values for the inhibition at 1 µM at RORγt [1] and at RORγt [2] were 102% and 108%, respectively. The inhibition at 3 µM on RORγt [3] came out at 103%.
The matching figures for `CC(C)n1c(=O)n(CC2CC2)c(=O)c2cc(NC(=O)N3CCC[C@@H](NC(=O)c4ccc(CNC(=O)OC(C)(C)C)cc4)C3)ccc21` [Example 274, tert-Butyl (4-(((3R)-1-((3-(cyclopropylmethyl)-1-isopropyl-2,4-dioxo-1,2,3,4-tetrahydroquinazolin-6-yl)carbamoyl)piperidin-3-yl)carbamoyl)benzyl) carbamate]: 102%, 89% and 101%.
